Results published in paper PMC11096237, “Utilizing a structure-based virtual screening approach to discover potential LSD1 inhibitors” (Journal of Cancer Research and Clinical Oncology, 2024).
pIC50: −log10 of the molar value.

Target: T1, LSD1 (Homo sapiens, UniProt O60341)
T1 construct: gene KDM1A
Assay: Amplex Red/HRP-coupled fluorescence demethylase assay with purified recombinant LSD1 and H3K4me2
Assay type: biochemical
From the text: Amplex Red/HRP-coupled fluorescence demethylase assay with purified recombinant LSD1 and H3K4me2 on LSD1 | […]

O=C(CNC(=O)Cc1ccccc1)NCC(=O)OCC(=O)c1ccc(OCc2ccccc2)cc1 [ZINC10039815]
pIC50: 7.00
